Legend:
[1] = tested on: TA[Q] (DNA, G4) TAGGGTTAGGGTTAGGGTTAGGG; assay: fluorescence titration; settings: K+ 0.1 M; 25 mM Tris-HCl pH 7.5, 1 mM EDTA, 18 °C; 0.5 μM compound
[2] = tested on: rUA[Q] (RNA, G4) UAGGGUUAGGGUUAGGGUUAGGG; assay: fluorescence titration; settings: K+ 0.1 M; 25 mM Tris-HCl pH 7.5, 1 mM EDTA, 18 °C (general conditions)

Structure (SMILES) | K11 [1] | binding constant [2] | Kd [1] [nM]
COc1cc2c(cc1OC)-c1cc3ccc(OC)c(OC)c3c[n+]1CC2 | (4.1 ± 0.4) × 10^5 M^-1 | – | –
COc1ccc2cc3[n+](cc2c1OC)CCc1cc2c(cc1-3)OCO2 | (4.1 ± 0.4) × 10^5 M^-1 | – | –
Cc1c2[n+](cc3c4c(ccc13)OCO4)CCc1cc3c(cc1-2)OCO3 | (5.1 ± 0.4) × 10^5 M^-1 | – | –
c1c2c(cc3c1OCO3)-c1cc3ccc4c(c3c[n+]1CC2)OCO4 | (1.4 ± 0.5) × 10^6 M^-1 | – | –
COc1cc2c(cc1OC)-c1cc3ccc4c(c3c[n+]1CC2)OCO4 | – | (1.2 ± 0.2) × 10^6 M^-1 | 37 ± 8
